Results reported in patent US20240408066A1, “Treatment Of Conditions Associated With Stress Granule Formation” (priority 2022, published 2024).

Key:
[1] = target: T1, recombinant mouse TIA1-ECFP+TIA1-EYFP (Mus musculus, UniProt P52912); experiment: In vitro FRET assay of TIA1 multimerization; type: binding; settings: TIA1-ECFP+TIA1-EYFP 10 ug/ml each; test compound 0-40 μM; FIG. 4
T1 construct: Full-length mouse TIA1 cDNA was generated from standard RT-PCR from total mouse brain RNA; 6xHis (N); made in house; host or cells: E. coli BL21 AI
T1 sequence (P52912 1-386) 1: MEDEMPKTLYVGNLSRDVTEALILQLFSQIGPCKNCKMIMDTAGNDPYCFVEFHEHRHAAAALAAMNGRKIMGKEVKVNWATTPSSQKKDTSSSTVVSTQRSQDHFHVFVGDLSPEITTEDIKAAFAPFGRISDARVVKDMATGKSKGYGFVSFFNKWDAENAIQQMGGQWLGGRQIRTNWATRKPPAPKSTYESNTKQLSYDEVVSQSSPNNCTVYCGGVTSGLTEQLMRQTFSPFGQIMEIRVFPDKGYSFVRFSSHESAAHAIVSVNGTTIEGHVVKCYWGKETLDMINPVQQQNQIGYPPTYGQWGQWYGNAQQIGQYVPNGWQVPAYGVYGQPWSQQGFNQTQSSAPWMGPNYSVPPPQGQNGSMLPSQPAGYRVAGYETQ
T1 sequence (P52912 1-386) 2: T1 sequence (P52912 1-386) 1
Excerpt: The assay that takes advantage of a phenomenon involving the transfer of energy between two compatible fluorescent proteins. In particular, the fluorescent proteins CFP and YFP (cyan fluorescent protein and yellow fluorescent protein, respectively) emit fluorescent light of characteristic wavelengths when excited by laser radiation. CFP or YFP was tethered to a TIA1 protein and the hybrid proteins were mixed together. Subsequently, if TIA1 self-interacts (dimerizes), the tethered CFP and YFP proteins are brought into close proximity to one another. When this occurs, laser excitation of CFP leads to a release of energy that is absorbed by YFP, which can be detected in the assay. This assay can be employed in the presence of other agents, such as small molecule compounds, to determine whether their presence has any effect on dimerization of TIA1. This screen was employed to assay compounds in a chemical library in order to identify compounds that effect TIA1 binding and dimerization or multimerization.
One way to establish that test compounds bind recombinant TIA1 is to perform a Förster resonance energy transfer (FRET) experiment. Binding of test compound to monomeric protein is inferred by a change in FRET signal upon ligand-induced multimerization of suitably tagged (c.g.,-ECFP and -EYFP) fusion proteins. In other words, not only must the compound bind to TIA1-ECFP and TIA1-EYFP, it must also induce a change in multimeric state such that energy can be transferred between the ECFP and EYFP tags. […]
Plasmids encoding mouse TIA1-ECFP and TIA1-EYFP were generated by standard PCR-based cloning techniques. […] Samples are read in real-time with a fluorescence microplate reader. To measure donor FRET, samples are excited at 430+30 nm, and […] is measured at 480+20 nm. Compounds that drive multimerization of the fusion proteins cause proximal localization of the ECFP and EYFP moieties, leading to a reduction in ECFP fluorescence with ECFP excitation due to energy transfer to EYFP. […]

[2] = target: T2, recombinant mouse TIA1 with human recombinant tau (0N4R isoform) (Mus musculus, UniProt P52912); experiment: TIA1-induced oligomerization of tau protein in vitro (oTau immunoblotting); type: biochemical; settings: fixed ratio of TIA1:tau; as a function of drug concentration and time (0.5-2 h); FIG. 5 right panels
T2 sequence (P52912 1-386): T1 sequence (P52912 1-386) 1
Description: Oligomeric tau is the most pathological configuration of the protein.
Purified full-length recombinant mouse TIA1 protein was generated from standard cloning methods followed by standard protocols for bacterial expression and purification. Recombinant TIA1 was incubated with commercially available human recombinant tau (ON4R isoform) obtained from R&D Systems at the indicated molar ratios/concentrations. After indicated incubation times, reactions were spotted onto nitrocellulose membrane followed by immunoblotting with primary antibodies that recognize oligomeric tau (oTau) or TIA1. Fluorescently labeled secondary antibody staining against indicated primary antibodies was followed by quantitative image analysis using a Li-COR Odyssey system. Experiment A evaluates the impact of TIA1:tau molar ratio on tau oligomerization and whether OTX0049 at a single test concentration interferes with TIA1-dependent tau oligomerization (FIG. 5, left panels). The experiment represented in the right panels measure the dose-response of OTX0049 and OTX1017 (Formula I in claims) inhibition of TIA1-dependent tau oligomerization at a fixed ratio of recombinant TIA1:tau (FIG. 5, right panels).

PS19 transgenic mice = experiment: Tau oligomerization in vivo in PS19 mice (hippocampal dot blots, oligomeric tau-specific antibody); set-up: species or system mouse; settings: 10 mg/kg i.p. once per week for 6 weeks; FIG. 10
Description: FIG. 10 illustrates the inhibition of tau oligomerization in vivo by OTX1017. Mice were treated with 10 mg/kg OTX1017 i.p., once per week, for 6 weeks, hippocampal extracts were prepared, and dot blots were performed with an oligomeric tau-specific antibody.

rTg4510 transgenic mice = experiment: Cellular pathology in rTg4510 mouse model (GFAP and NeuN immunohistochemistry); type: in vivo; settings: 5 mg/kg i.p. once per week for 7 weeks beginning at 77 d; FIG. 7
Description: rTg4510 transgenic mice are a well-established model of tauopathy based on expression of a human tau mutant (P301L). […] Given that these cellular pathological events are driven by tau, TIA1 antagonists compounds should limit tau-dependent pathology.
rTg4510 transgenic mice were treated with DMSO vehicle or OTX1017 (Formula I in claims 5 mg/kg i.p.) once per week for 7 weeks beginning at 77 d. Hippocampal slices were then prepared for conventional immunohistochemistry with GFAP (neuroinflammation marker) and NeuN (neuronal marker), followed by quantitation using NIH ImageJ. GFAP signal was quantitated in cortex (ctx) (white arrows). NeuN staining was used to calculate average thickness of the CA1 pyramidal cell layer for each slice.

SMILES | multimerization of TIA1 (FRET signal) [1] | TIA1-dependent tau oligomerization, dose-response [2] | oligomeric tau in the hippocampus (PS19 transgenic mice) | GFAP staining in the cortex (neuroinflammation) (rTg4510 transgenic mice) | thickness of the CA1 pyramidal layer neurons (NeuN staining) (rTg4510 transgenic mice)
Cc1ccc(C)c(-n2[se]c3cc(F)ccc3c2=O)c1 [OTX1017] | Induce Multimerization of Recombinant Mouse TIA1 | drug-dependent reduction of TIA1-dependent tau oligomerization | significantly reduces the presence of oligomeric tau in the hippocampus | ameliorated | ameliorated by drug treatment
Cc1ccc(C)c(-n2[se]c3cncnc3c2=O)c1 [OTX1018] | Induce Multimerization of Recombinant Mouse TIA1 |  |  |  | 
CCOC(=O)c1ccc(-n2sc3ccccc3c2=O)cc1 [Formula III] | demonstrate FRET signals indicative of TIA1 multimerization |  |  |  | 
